How the values were obtained:
iHUCOs (UC organoids) = experiment: Repertaxin treatment of iHUCOs in vitro during development from spheroids to organoids (IF, IHC, H&E, in situ hybridization); type: cell-based, human
Source text: (§1) FIGS. 6A-U: Repertaxin attenuates the progression of the colitic phenotype in iHUCOs in vitro. (A, B) Representative immunofluorescence co-localization expression of CXCR1 (red) and CXCL8 (green) expressed in epithelium and mesenchyme of iHNO and iHUCO in the absence (A) or presence of repertaxin (B). (C, D) Summarized percentages of cells positive for CXCR1, CXCL8 and both, in the epithelium and mesenchyme of non-IBD and UC iHCOs, after treatment with repertaxin (20 μm) compared to vehicle (Ctrl). (E) Representative H&E of non-IBD and UC organoids in Ctrl compared to repertaxin treated (F). (G, H) Organoid mean diameter and epithelial thickness after 21 days of treatment with repertaxin compared to control. […] (S, T) Quantification of the percentage of the cells in control vs. repertaxin-treated organoids, positive for RhoA in plasma membrane-only (Mem) and cytoplasm (Cyt). […] IHC Scale bar, 40 um. IF Scale bar, 25 um. N=3 each; except for barrier studies, N=1. ns: not significant, **(p<0.01), ***(p<0.001), ****(p<0.0001). The upregulation of the CXCL8 receptor pro-inflammatory interaction in iHUCOs (FIG. 5) led us to study the effect of repertaxin, a small molecule inhibitor of the CXCL8 receptor, on organoids development. In brief, we treated both UC and non-IBD organoids with repertaxin for 21 days, during their development from spheroids to organoids and compared their phenotypic characteristics to vehicle (Ctrl) organoids.

[1] = test system: iHNOs (non-IBD organoids); experiment: Repertaxin treatment of iHNOs in vitro during development from spheroids to organoids (IF, IHC, H&E); type: cell-based, human
Source text: as §1

[2] = test system: UC epithelial barrier (iHUCOs); experiment: Epithelial barrier permeability by microinjection of 4 kD dextran, real-time, iHUCOs; type: cell-based, human; conditions: 4 kDa dextran, 15 hours, treated vs untreated
Source text: (§2) FIGS. 6A-U: Repertaxin attenuates the progression of the colitic phenotype in iHUCOs in vitro. (A, B) Representative immunofluorescence co-localization expression of CXCR1 (red) and CXCL8 (green) expressed in epithelium and mesenchyme of iHNO and iHUCO in the absence (A) or presence of repertaxin (B). (C, D) Summarized percentages of cells positive for CXCR1, CXCL8 and both, in the epithelium and mesenchyme of non-IBD and UC iHCOs, after treatment with repertaxin (20 μm) compared to vehicle (Ctrl). (E) Representative H&E of non-IBD and UC organoids in Ctrl compared to repertaxin treated (F). (G, H) Organoid mean diameter and epithelial thickness after 21 days of treatment with repertaxin compared to control. […] (S, T) Quantification of the percentage of the cells in control vs. repertaxin-treated organoids, positive for RhoA in plasma membrane-only (Mem) and cytoplasm (Cyt). […] IHC Scale bar, 40 um. IF Scale bar, 25 um. N=3 each; except for barrier studies, N=1. ns: not significant, **(p<0.01), ***(p<0.001), ****(p<0.0001). Moreover, to functionally confirm the adherens vs. tight junction signature in UC compared to non-IBD organoids, we used the recently described microinjection technique by Hill et al. to measure and compare the epithelial barrier permeability for both UC and non-IBD organoids in real-time. […]

[3] = test system: epithelial barrier of non-IBD organoids (iHNOs); experiment: Epithelial barrier permeability by microinjection of 4 kD dextran, real-time, iHNOs; type: cell-based, human; conditions: 4 kDa dextran, 15 hours, treated vs untreated
Source text: as §2

iHUCOs = experiment: Repertaxin in vivo: UC spheroids in TS-HA hydrogel beads implanted subcutaneously in NSG mice
Source text: (§3) FIGS. 7A-U: Repertaxin attenuates the progression of the colitic phenotype in iHUCOs in vivo. (A) Schematic representation of repertaxin study in vivo; spheroids encapsulated in TS-HA hydrogel beads were implanted subcutaneously in the dorsal flanks of immunocompromised NSG mice receiving daily injections of repertaxin vs. PBS (21 days). (B, C) Representative immunofluorescence dual-staining of CXCR1 (red) and CXCL8 (green) expressed in epithelium and mesenchyme of iHNO and iHUCO in Ctrl (B) or repertaxin-treated (C). (D, E) Summarized percentages of cells positive for CXCR1, CXCL8 and both, in the epithelium and mesenchyme of non-IBD and UC organoids, after treatment with repertaxin (20 mg/kg) compared to PBS (Ctrl). (F-G) Representative H&E of non-IBD and UC organoids harvested after 21 days for control (F) and repertaxin treatment (G). (H, I) Mean organoid diameter and epithelial thickness after 21 days of repertaxin treatment vs. Ctrl. […] Results reported for the plasma membrane only (Mem), and cytoplasm+nucleus (Cyt+Nuc) cellular compartments. (R, S) Representative immunohistochemistry of RhoA, highlighting the effect of repertaxin on the cellular localization of the protein in plasma membrane only (Mem), and cytoplasm (Cyt) compartments. (T, U) Summarized percentages of cells expressing RhoA in Ctrl vs. repertaxin-treated organoids for plasma membrane-only (Mem) and cytoplasm (Cyt). IHC Scale bar, 40 um. IF Scale bar, 25 um. N=3 each. ns=not significant, *(p<0.05), **(p<0.01), ***(p<0.001), ****(p<0.0001). […] To test the significance of our repertaxin observations in vivo, we studied the effect of repertaxin on the developmental progression of spheroids to organoids, implanted subcutaneously in the dorsal flank of NSG mice (FIG. 7A, STAR Methods). In brief, we encapsulated the spheroids in TS-HA hydrogel beads and implanted the beads subcutaneously. Mice were then treated daily for 21 days with either 20 mg/kg repertaxin or PBS (control). The rate of growth was measured twice per week with calipers, and the volume calculated (STAR Methods).

iHNOs = experiment: Repertaxin in vivo: non-IBD spheroids in TS-HA hydrogel beads implanted subcutaneously in NSG mice
Source text: as §3

[4] = UC organoids, IHC, repertaxin vs control
[5] = iHUCOs epithelium, IHC, repertaxin vs control
[6] = iHUCOs, 21 days repertaxin vs control
[7] = iHUCOs, repertaxin (20 μm), 21 days, vs control
[8] = iHUCOs, repertaxin (20 μm), 21 days, vs vehicle (Ctrl), average
[9] = iHNOs, IHC, repertaxin vs control
[10] = non-IBD organoids, 21 days repertaxin vs control
[11] = non-IBD organoids, IHC, repertaxin vs control
[12] = non-IBD organoids, repertaxin (20 μm), 21 days, vs control
[13] = UC organoids, 20 mg/kg daily, 21 days, vs PBS
[14] = iHUCOs, 20 mg/kg daily, 21 days, vs PBS
[15] = iHUCOs, IHC, vs untreated control
[16] = non-IBD organoids, 20 mg/kg daily, 21 days, vs PBS

For `CC(C)Cc1ccc([C@@H](C)C(=O)NS(C)(=O)=O)cc1` [repertaxin], the “cytoplasmic and nuclear expression of E-cadherin” value (iHUCOs (UC organoids); [4]) was “greater”, the “cytoplasmic and nuclear expression of β-catenin” value (iHUCOs (UC organoids); [4]) was “greater” and the “RhoA expression in cytoplasm” value (iHUCOs (UC organoids); [5]) was “less RhoA expression”. For the same molecule, the “less RhoA expression on the membrane (activated RhoA)” value (iHUCOs (UC organoids); [5]) was ~5 fold, the epithelial thickness (iHUCOs (UC organoids); [6]) was “less thick epithelium” and the organoid size (iHUCOs (UC organoids); [6]) was “significantly lower size”. The Claudin-1 expression (iHUCOs (UC organoids); iHUCOs, IHC, repertaxin vs control) was “significantly more expression”, the CXCL8 expression (iHUCOs (UC organoids); [7]) was “significantly lower than control” and the “percentage of co-expression of CXCL8/CXCR1” value (iHUCOs (UC organoids); [7]) was “significantly lower than control”. The “lower expression of CXCR1 in the epithelium” value (iHUCOs (UC organoids); [8]) was 7 fold, the “lower expression of CXCR1 in the mesenchyme” value (iHUCOs (UC organoids); [8]) was 9 fold and the “expression pattern of p-YAP1” value (iHUCOs (UC organoids); treated iHUCOs, IHC) was “more closely resembled the expression patterns in iHNOs”. For the same molecule, the “expression pattern of LGR5” value (iHUCOs (UC organoids); treated iHUCOs, in situ hybridization) was “more closely resembled the expression patterns in iHNOs”, the “Ki67 expression in the epithelium (proliferation)” value [1, 9] was “significantly lower expression” and the RhoA expression [1, 9] was “did not significantly affect”. The Claudin-1 expression ([1]; iHNOs, IHC, treated vs control) was “no significant changes”, the epithelial thickness [1, 10] was “did not change” and the organoid size [1, 10] was “significantly smaller organoids”. The “cells with expression of E-cadherin limited to the plasma membrane” value [1, 11] was “significantly more cells with limited expression”, the “cells with expression of β-catenin limited to the plasma membrane” value [1, 11] was “significantly more cells with limited expression” and the “cytoplasmic and nuclear expression of E-cadherin” value [1, 11] was “lower cytoplasmic and nuclear expression”. For the same molecule, the “cytoplasmic and nuclear expression of β-catenin” value [1, 11] was “lower cytoplasmic and nuclear expression”, the CXCL8 expression [1, 12] was “significantly less” and the CXCR1 expression [1, 12] was “significantly less”. The “rate of permeability of the epithelial barrier (dye release)” value [2] was “significantly decreased”, the “real-time measurement timepoints with significantly decreased permeability” value [2] was 50% and the “epithelial permeability (dye release)” value [3] was “did not have a significant effect”. For the same molecule, the “overall calculated volume of implanted beads” value (iHUCOs; 20 mg/kg repertaxin daily for 21 days vs PBS, groups (UC and non-IBD) not told apart) was “significantly greater in the PBS than in the repertaxin-treated groups”, the CXCL8 expression (iHUCOs; [13]) was “less” and the CXCR1 expression (iHUCOs; [13]) was “less”. For the same molecule, the “Ki67 proliferation rate in the epithelium” value (iHUCOs; [14]) was “significantly reduced”, the epithelial thickness (iHUCOs; [14]) was “significant less thick epithelium” and the Claudin-1 expression (iHUCOs; iHUCOs, IHC, vs control) was “significantly increased”. The “cytoplasmic expression of RhoA” value (iHUCOs; iHUCOs, IHC, vs control) was “strongly decreased”, the “membranous expression of RhoA” value (iHUCOs; iHUCOs, IHC, vs control) was “strongly decreased” and the “cytoplasmic and nuclear expression of E-cadherin” value (iHUCOs; [15]) was “greater cytoplasmic and nuclear expression”. The “cytoplasmic and nuclear expression of β-catenin” value (iHUCOs; [15]) was “greater cytoplasmic and nuclear expression”, the epithelial thickness (iHNOs; iHNOs, 20 mg/kg daily, 21 days, vs PBS) was “no significant effect” and the E-cadherin expression pattern (iHNOs; iHNOs, IHC, vs control) was “higher rate of expression in membrane”. The RhoA expression (iHNOs; iHNOs, IHC, vs control) was “did not have a significant effect”, the β-catenin expression pattern (iHNOs; iHNOs, IHC, vs control) was “higher rate of expression in membrane” and the “Ki67 proliferation rate in the epithelium” value (iHNOs; non-IBD epithelium, 20 mg/kg daily, 21 days, vs PBS) was “did not have a significant effect”. For the same molecule, the CXCL8 expression (iHNOs; [16]) was “less”, the CXCR1 expression (iHNOs; [16]) was “less” and the Claudin-1 expression (iHNOs; non-IBD organoids, IHC, vs control) was “did not change”.
